Assay [1] relates to rice flat sedge. The assay is described as follows: Test Example 3: herbicidal effect by foliage application, Wagner pot (Table 18, symbol E). The class given is in vivo, rice flat sedge (Cyperus iria). To be noted: amount of applied herbicide 320 g/ha. The method, boiled down:
(§1)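 Plants were sown in alluvial soil held under 0.1–0.5 cm standing water and grown 14 days in a greenhouse at 25–30 °C. An emulsifiable formulation, water-diluted to the set dose, was then sprayed onto the foliage, and effects were scored three weeks later using previously defined criteria.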

Assay [2] deals with green foxtail. Kind of assay: Test Example 4: herbicidal effect by soil treatment (Table 19, symbol G). The class given is in vivo, green foxtail (Setaria viridis). The note with it: amount of applied herbicide 320 g/ha. The method, boiled down: (§2)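 Herbicidal effect was rated 3 weeks after treatment, using the scoring criteria of an earlier test. The compound, formulated as an emulsion and diluted in water to a set herbicide amount, had been sprayed uniformly on soil over freshly sown seeds. Growth took place in a greenhouse at 25° C. to 30° C.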

Assay [3] concerns Japanese bulrush. Kind of assay: Test Example 2: herbicidal activity, application during weed generation under submerged conditions (Table 17, symbol B). The class given is in vivo, Japanese bulrush (Schoenoplectus juncoides). The note with it: AAH 320 g/ha; application during weed generation, submerged conditions. The method, then:
(§3) [Test Example 2] Herbicidal Activity Test by Application during Weed Generation under Submerged Conditions After alluvial soil was placed into 1/10000 are of Wagner pot, water was poured and mixed to form a submerged condition having a water depth of 4 cm. Seeds of late watergrass, Japanese bulrush, and oval-leafed pondweed were sowed in a mixed manner in the aforementioned pot, and the pot was placed in a greenhouse at 25° C. to 30° C. for growth of the plants. When late watergrass, Japanese bulrush, and oval-leafed pondweed were grown to one leaf stage to two leaf stage, the emulsion agent of the compound of the present invention prepared according to Formulation Example 2 was diluted with water so as to achieve a predetermined herbicide amount, and the diluted emulsion agent was applied to the surface of the water. Three weeks after the herbicide application, the effect of the herbicide on each plant was evaluated according to the criteria of Test Example 1.

Assay [4] concerns barnyard grass. The assay is described as follows: Test Example 5: herbicidal effect by foliage application, plastic box (Table 20, symbol H). To be noted: foliage application, 320 g/ha, three weeks after application. The assay is classed as in vivo, barnyard grass (Echinochloa crus-galli). The method, boiled down:
(§4)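 Foliar spray test: emulsion formulation diluted in water to a set application rate, sprayed onto 14-day-old plants raised in diluvial soil at 25° C to 30° C under glass. Both herbicidal effect and crop effect rated visually three weeks later.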

The test system of assay [5] is Chinese sprangletop. Kind of assay: Test Example 3: herbicidal effect by foliage application, Wagner pot (Table 18, symbol D). The assay is classed as in vivo, chinese sprangletop (Leptochloa chinensis). To be noted: amount of applied herbicide 320 g/ha. The method, boiled down: as §1
Assay [6] concerns late watergrass. Kind of assay: Test Example 2: herbicidal activity, application during weed generation under submerged conditions (Table 17, symbol A). The class given is in vivo, late watergrass (Echinochloa oryzicola). To be noted: AAH 320 g/ha; application during weed generation, submerged conditions. The method, then: as §3
In assay [7] the test system is redroot pigweed. The assay is described as follows: Test Example 5: herbicidal effect by foliage application, plastic box (Table 20, symbol N). The class given is in vivo, redroot pigweed (Amaranthus retroflexus). To be noted: foliage application, 320 g/ha, three weeks after application. The method, boiled down:
as §4

The subject of assay [8] is barnyard grass. The assay is described as follows: Test Example 4: herbicidal effect by soil treatment (Table 19, symbol H). The assay is classed as in vivo, barnyard grass (Echinochloa crus-galli). The note with it: amount of applied herbicide 320 g/ha. The method, boiled down: as §2
Assay [9] deals with velvetleaf. The assay is described as follows: Test Example 4: herbicidal effect by soil treatment (Table 19, symbol M). The class given is in vivo, velvetleaf (Abutilon theophrasti). The note with it: amount of applied herbicide 320 g/ha. The method, boiled down: as §2
In assay [10] the test system is lambsquarters. The assay is described as follows: Test Example 4: herbicidal effect by soil treatment (Table 19, symbol O). The assay is classed as in vivo, lambsquarters (Chenopodium album). To be noted: amount of applied herbicide 320 g/ha. The method, boiled down:
as §2

The subject of assay [11] is lambsquarters. The assay is described as follows: Test Example 5: herbicidal effect by foliage application, plastic box (Table 20, symbol O). The class given is in vivo, lambsquarters (Chenopodium album). To be noted: foliage application, 320 g/ha, three weeks after application. The method, boiled down:
as §4

The subject of assay [12] is redroot pigweed. The assay is described as follows: Test Example 4: herbicidal effect by soil treatment (Table 19, symbol N). The assay is classed as in vivo, redroot pigweed (Amaranthus retroflexus). To be noted: amount of applied herbicide 320 g/ha. The method, boiled down: as §2
Assay [13] concerns oval-leafed pondweed. The assay is described as follows: Test Example 2: herbicidal activity, application during weed generation under submerged conditions (Table 17, symbol C). The class given is in vivo, oval-leafed pondweed (Monochoria vaginalis). The note with it: AAH 320 g/ha; application during weed generation, submerged conditions. Here is the method:
as §3

The subject of assay [14] is barnyard grass. The assay is described as follows: Test Example 3: herbicidal effect by foliage application, Wagner pot (Table 18, symbol H). The assay is classed as in vivo, barnyard grass (Echinochloa crus-galli). To be noted: amount of applied herbicide 320 g/ha. The method, boiled down:
as §1

For assay [15], the system named is green foxtail. Kind of assay: Test Example 5: herbicidal effect by foliage application, plastic box (Table 20, symbol G). The assay is classed as in vivo, green foxtail (Setaria viridis). The note with it: foliage application, 320 g/ha, three weeks after application. The method, boiled down:
as §4

The test system of assay [16] is southern crabgrass. The assay is described as follows: Test Example 4: herbicidal effect by soil treatment (Table 19, symbol F). The assay is classed as in vivo, southern crabgrass (Digitaria ciliaris). To be noted: amount of applied herbicide 320 g/ha. The method, boiled down:
as §2

Assay [17] relates to velvetleaf. The assay is described as follows: Test Example 5: herbicidal effect by foliage application, plastic box (Table 20, symbol M). The assay is classed as in vivo, velvetleaf (Abutilon theophrasti). The note with it: foliage application, 320 g/ha, three weeks after application. The method, boiled down:
as §4

Assay [18] deals with southern crabgrass. Kind of assay: Test Example 5: herbicidal effect by foliage application, plastic box (Table 20, symbol F). The assay is classed as in vivo, southern crabgrass (Digitaria ciliaris). The note with it: foliage application, 320 g/ha, three weeks after application. The method, boiled down:
as §4

For the molecule `Cc1ccc2sc(-c3ccc(OC(F)F)cc3)c(-c3c(O)c(C)nn(C)c3=O)c2c1` [2-459], in assay [1], the “herbicidal effect on E: rice flat sedge” value was 0 (Herbicidal rate of 5% or less (almost no effect)). Also, the “herbicidal effect, G: green foxtail” value in [2] is 0 (Herbicidal rate of 5% or less (almost no effect)). Besides, the “herbicidal effect rating, B: Japanese bulrush” value in [3] is recorded as 0 (Herbicidal rate of 5% or less (almost no effect)). In addition, the “H: barnyard grass, herbicidal effect grade” value in [4] is 0 (Herbicidal rate of 5% or less (almost no effect)). The “herbicidal effect on D: Chinese sprangletop” value in assay [5] is given as 0 (Herbicidal rate of 5% or less (almost no effect)). The “herbicidal effect rating, A: late watergrass” value in [6] is 3 (Herbicidal rate of 40% or more and less than 70%). For the same molecule, in assay [7], the “N: redroot pigweed, herbicidal effect grade” value is 4 (Herbicidal rate of 70% or more and less than 90%). The “herbicidal effect, H: barnyard grass” value in assay [8] is reported as 0 (Herbicidal rate of 5% or less (almost no effect)). Besides, in assay [9], the “herbicidal effect, M: velvetleaf” value is 1 (Herbicidal rate of 5% or more and less than 20%). Moreover, in [10], the “herbicidal effect, O: lambsquarters” value was 4 (Herbicidal rate of 70% or more and less than 90%). For the same molecule, the “O: lambsquarters, herbicidal effect grade” value in assay [11] was 4 (Herbicidal rate of 70% or more and less than 90%). Also, the “herbicidal effect, N: redroot pigweed” value in [12] is recorded as 5 (Herbicidal rate of 90% or more (almost completely withered)). Also, in assay [13], the “herbicidal effect rating, C: oval-leafed pondweed” value was 0 (Herbicidal rate of 5% or less (almost no effect)). Also, the “herbicidal effect on H: barnyard grass” value in [14] is 3 (Herbicidal rate of 40% or more and less than 70%). Further, the “G: green foxtail, herbicidal effect grade” value in assay [15] is recorded as 0 (Herbicidal rate of 5% or less (almost no effect)). Further, the “herbicidal effect, F: southern crabgrass” value in assay [16] is 0 (Herbicidal rate of 5% or less (almost no effect)). For the same molecule, the “M: velvetleaf, herbicidal effect grade” value in [17] is 4 (Herbicidal rate of 70% or more and less than 90%). In addition, in [18], the “F: southern crabgrass, herbicidal effect grade” value is 0 (Herbicidal rate of 5% or less (almost no effect)).

For the molecule `Cc1cc2sc(-c3ccc(OC(F)(F)F)cc3)c(-c3c(O)c(C)nn(C)c3=O)c2cc1C` [5-109], the “herbicidal effect rating, B: Japanese bulrush” value in assay [3] is listed as 0 (Herbicidal rate of 5% or less (almost no effect)). The “herbicidal effect rating, A: late watergrass” value in [6] is 2 (Herbicidal rate of 20% or more and less than 40%). Further, the “herbicidal effect rating, C: oval-leafed pondweed” value in assay [13] is 0 (Herbicidal rate of 5% or less (almost no effect)).
